Bioavailability data for three molecules are collected here from US20230041621A1, “SSTR5 ANTAGONISTS” (Kallyope, Inc., priority 2019, published 2023).

This series in a line: Oral bioavailability after oral dosing in rat. The conditions noted are these: in vivo, Sprague Dawley rats, IV 1 mg/kg, PO 5 mg/kg, IV vehicle 5% DMSO + 30% PEG400 + 65% water, PO vehicle 0.5% methyl cellulose in water. On the procedure: Oral bioavailability of the compounds was determined in Sprague Dawley rats. The table below summarizes the results. Each compound was dosed intravenously (IV) at 1 mg/kg and orally (PO) 5 mg/kg using the respective vehicles listed below. The compounds display low (<10%) oral bioavailability (F %).
As usually defined, the bioavailability is the share of a dose that reaches the circulation, judged against a reference dose that is usually intravenous. For `CCOc1cc(-c2ccc(F)cc2)c(C2CC2)cc1CN1CCC2(CC1)CN(c1ccc(S(=O)(=O)O)cc1)C(=O)O2` [Compound 1, 4-(8-((2-cyclopropyl-5-ethoxy-4′-fluoro-[1,1′-biphenyl]-4-yl)methyl)-2-oxo-1-oxa-3,8-diazaspiro[4.5]decan-3-yl)benzenesulfonic acid], the bioavailability was 4.6%.

With `CCOc1cc(-c2ccc(F)cc2)c(C2CC2)cc1CN1CCC2(CC1)CC(=O)N(c1ccc(S(=O)(=O)O)cc1)C2` [Compound 2, 4-(8-((2-cyclopropyl-5-ethoxy-4′-fluoro-[1,1′-biphenyl]-4-yl)methyl)-3-oxo-2,8-diazaspiro[4.5]decan-2-yl)benzenesulfonic acid], the bioavailability is 2.1%. In the case of `CCOc1cc(-c2ccc(F)cn2)c(C2CC2)cc1CN1CCC2(CC1)CN(c1ccc(S(=O)(=O)O)cc1)C(=O)O2` [Compound 3, 4-(8-(5-cyclopropyl-2-ethoxy-4-(5-fluoropyridin-2-yl)benzyl)-2-oxo-1-oxa-3,8-diazaspiro[4.5]decan-3-yl)benzenesulfonic acid], the bioavailability turned out to be 1.2%.
